In patent US8304422B2, “Compositions and methods for inhibition of the JAK pathway” (Rigel Pharmaceuticals, Inc., priority 2007, dated 2012) one finds IC50 data, which are given here for 33 compounds.

The IC50 is the concentration needed to halve the response being measured. A high value points to a need for much substance.

The test concerns BaF3 V617F cells; UKE-1. The experiment in a line: Proliferation Assay (Cell Titer-Glo; Example 7). Type of test: cell-based. As to conditions: proliferation 72 hours, inhibit JAK2 activity, cell line (BaF3 V617F or UKE-1) not stated. The method in brief:
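Proliferation IC50s reflect 72 h compound exposure at 37 °C, read by Cell Titer-Glo luminescence. Compound was serially diluted 3-fold from a 5 mM DMSO stock and added as a 2× solution; BaF3 V617F cells were grown in RPMI/10% FBS, UKE-1 in Iscove's DMEM with FBS, equine serum and hydrocortisone.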
Background: ATP-based viability assays read luminescence as a measure of living cells.

The compound `CCNS(=O)(=O)NCc1ccc(Nc2nc(Nc3cc(C)c(OCC)c(C)c3)ncc2Cl)c(C)c1` [II-143, 5-Chloro-N2-(3,5-dimethyl-4-ethoxyphenyl)-N4-[2-methyl-4-(ethylaminosulfonylamino)methylphenyl]-2,4-pyrimidinediamine] showed a concentration for half-maximal inhibition (IC50) of 0.252 µM.
Then `CCc1cnc(Nc2cc(OC)c(OC)c(OC)c2)nc1Nc1ccc(CNS(=O)(=O)C2CC2)cc1` [II-85, N4-[4-(N-Cyclopropylsulfonylamino)methylphenyl]-5-ethyl-N2-(3-,4,5-trimethoxylphenyl)-2,4-pyrimidinediamine], with 2.69 µM; and “5-Chloro-N4-[4-(N-cyclopropylsulfonylamino)methylphenyl]-N2-[4-(N-ethylpiperizin-4-yl)phenyl]-2,4-pyrimidinediamine [II-205]”, with 0.135 µM; and `COc1c(Cl)cc(Nc2ncc(Cl)c(Nc3ccc(CNS(=O)(=O)N(C)C)cc3)n2)cc1Cl` [II-94, 5-Chloro-N2-[3,5-dichloro-4-methoxyphenyl]-N4-[(4-(dimethylamino)sulfonylamino)methylphenyl]-2,4-pyrimidinediamine], with 13.5 µM.
Then `CCNS(=O)(=O)NCc1cccc(Nc2nc(Nc3cc(C)c(OC)c(C)c3)ncc2C)c1` [II-133, N2-(3,5-Dimethyl-4-methoxyphenyl)-N4-[(3-(ethylamino)sulfonylamino)methylphenyl]-5-methyl-2,4-pyrimidinediamine], with 0.209 µM; and `Cc1cc(CNS(=O)(=O)NC2CC2)ccc1Nc1nc(Nc2cc(C)c(OC(C)C)c(C)c2)ncc1Cl` [II-177, 5-Chloro-N2-(3,5-dimethyl-4-(1-methylethoxy)phenyl)-N4-[2-methyl-4-((N-cyclopropylamino)sulfonylamino)methylphenyl]-2,4-pyrimidinediamine], with 0.643 µM; and `Cc1cnc(Nc2ccc(N3CCN(C)CC3)nc2)nc1Nc1ccc(CCNS(=O)(=O)C2CC2)cc1` [II-69], with 1.81 µM.
Then `Cc1cc(OC(C)C)cc(C)c1Nc1ncc(Cl)c(Nc2ccc(CCNS(=O)(=O)C3CC3)cc2)n1` [II-48, 5-Chloro-N4[4-(N-cyclopropylsulfonylamino)ethylphenyl]-N2-[4-(2,6-dimethyl-isopropoxy)phenyl]-2,4-pyrimidinediamine], with 0.698 µM.
In the case of `Cc1cnc(Nc2ccc(-c3cccnc3)cc2)nc1Nc1ccc2c(c1)[C@H](NS(C)(=O)=O)CC2` [V-12, (1R)-5-Methyl-N4-[1-(methylsulfonyl)aminoindan-6-yl]-N2-[4-(3-pyridinyl)phenyl]-2,4-pyrimidinediamine], the IC50 worked out at 0.668 µM.
Then `CCS(=O)(=O)N1CCc2c(cccc2Nc2nc(Nc3ccc(N4CCN(C)CC4)cc3)ncc2Cl)C1` [VI-1, 5-Chloro-N2-[4-(4-methyl-1-piperazinyl)phenyl]-N4-[1,2,3,4-tetrahydro-2-(ethylsulfonyl)-5-isoquinolinyl]-2,4-pyrimidinediamine], with 0.473 µM; and `Cc1cc(Nc2ncc(Cl)c(Nc3ccc(CNS(N)(=O)=O)cc3)n2)ccc1N1CCN(C)CC1` [II-149, N4-[4-(Aminosulfonylamino)methylphenyl]-5-chloro-N2-[3-methyl-4-(4-methyl-1-piperazinyl)phenyl]-2,4-pyrimidinediamine], with 1.04 µM.
The compound `CCNS(=O)(=O)NCc1cccc(Nc2nc(Nc3cc(C)c(OCC)c(C)c3)ncc2Cl)c1` [II-130, 5-Chloro-N2-(3,5-dimethyl-4-ethoxyphenyl)-N4-[(3-(ethylamino)sulfonylamino)methylphenyl]-2,4-pyrimidinediamine] had a half-inhibitory concentration (IC50) of 0.14 µM.
Then `Cc1cc(N2CCN(C)CC2)ccc1Nc1ncc(C)c(Nc2ccc(CCNS(=O)(=O)C3CC3)cc2)n1` [II-68], with 4.14 µM; and `Cc1cnc(Nc2ccc(N3CCN(C)CC3)cc2)nc1Nc1ccc2c(c1)[C@H](NS(C)(=O)=O)CC2` [V-14, (1R)-5-Methyl-N2-[4-(4-methyl-1-piperazinyl)phenyl]-N4-[1-(methylsulfonyl)aminoindan-6-yl]-2,4-pyrimidinediamine], with 2.69 µM.
Then `CN1CCN(c2ccc(Nc3ncc(Cl)c(Nc4ccc(CCNS(=O)(=O)C5CC5)cc4)n3)c(F)c2)CC1` [II-56, 5-Chloro-N4[4-(N-cyclopropylsulfonylamino)ethylphenyl]-N2-[4-(4-methylpiperazino)-2-fluorophenyl]-2,4-pyrimidinediamine], with 0.639 µM; and `COc1cc(Nc2ncc(Cl)c(Nc3ccc(CNS(=O)(=O)C4CC4)cc3)n2)cc(OC)c1OC` [II-186, 5-Chloro-N4-[4-(N-cyclopropylsulfonylaminomethyl)phenyl]-N2-[3,4,5-trimethoxyphenyl]-2,4-pyrimidinediamine], with 0.128 µM.
Then `COc1c(C)cc(Nc2ncc(Cl)c(Nc3ccc(CNS(=O)(=O)N(C)C)cc3)n2)cc1Cl` [II-93, 5-Chloro-N2-(3-chloro-4-methoxy-5-methylphenyl)-N4-[(4-(dimethylamino)sulfonylamino)methylphenyl]-2,4-pyrimidinediamine], with 0.35 µM; and `O=S(=O)(NCc1ccc(Nc2nc(Nc3ccc(N4CCN(C5CC6CCC5C6)CC4)c(F)c3)ncc2Cl)cc1)C1CC1` (stereo not drawn) [II-79, N-(4-(2-(4-(4-(bicyclo[2.2.1]heptan-2-yl)piperazin-1-yl)-3-fluorophenylamino)-5-chloropyrimidin-4-ylamino)benzyl)cyclopropanesulfonamide], with 3.16 µM.
Take `CCNS(=O)(=O)NCc1cccc(Nc2nc(Nc3cc(C)c(OC)c(C)c3)ncc2Cl)c1` [II-129, 5-Chloro-N2-(3,5-dimethyl-4-methoxyphenyl)-N4-[(3-(ethylamino)sulfonylamino)methylphenyl]-2,4-pyrimidinediamine]: it took 0.127 µM to reach half-maximal inhibition (IC50). Against the preceding compound, the IC50 is about 25-fold lower.
Then “5-Methyl-N4-[4-(N-cyclopropylsulfonylamino)methylphenyl]-N2-[2,4-dimethyl-5-chlorophenyl]-2,4-pyrimidinediamine [II-212]”, with 2.2 µM; and `Cc1cnc(Nc2ccc(N3CCN(C)CC3)cc2)nc1Nc1ccc(CNS(=O)(=O)N(C)C)cc1` [II-104, N4-[(4-(Dimethylamino)sulfonylamino)methylphenyl]-5-methyl-N2-[4-(4-methyl-1-piperazinyl)phenyl]-2,4-pyrimidinediamine], with 0.349 µM; and `COc1cc(Nc2ncc(F)c(Nc3ccc(CNS(=O)(=O)C4CC4)cc3)n2)cc(C)c1OC` [II-195, 5-Fluoro-N4-[4-(N-cyclopropylsulfonylamino)methylphenyl]-N2-[3,4-dimethoxy-5-methylphenyl]-2,4-pyrimidinediamine], with 0.18 µM.
As to `COc1c(C)cc(Nc2ncc(C)c(Nc3ccc(CNS(=O)(=O)N(C)C)cc3)n2)cc1Cl` [II-101, 5-Methyl-N2-(3-chloro-4-methoxy-5-methylphenyl)-N4-[(4-(dimethylamino)sulfonylamino)methylphenyl]-2,4-pyrimidinediamine], the IC50 was 0.194 µM.
Then `Cc1cc(CNS(=O)(=O)C2CC2)cc(Nc2nc(Nc3ccc(N4CCN(C5CC6CCC5C6)CC4)cc3)ncc2Cl)c1` (stereo not drawn) [II-76, N-(3-(2-(4-(4-(bicyclo[2.2.1]heptan-2-yl)piperazin-1-yl)phenylamino)-5-chloropyrimidin-4-ylamino)-5-methylbenzyl)cyclopropanesulfonamide], with 1.31 µM; and `CCN1CCN(c2ccc(Nc3ncc(Cl)c(Nc4ccc(CCNS(=O)(=O)C5CC5)cc4)n3)c(C(F)(F)F)c2)CC1` [II-57, 5-Chloro-N4[4-(N-cyclopropylsulfonylamino)ethylphenyl]-N2-[4-(4-ethylpiperazino)-2-trifluoromethylphenyl]-2,4-pyrimidinediamine], with 1.7 µM.
In turn, `Cc1cc(CNS(=O)(=O)C2CC2)ccc1Nc1nc(Nc2ccc(N3CCN(C)CC3)c(C)c2)ncc1Cl` [II-153, 5-Chloro-N4-[2-methyl-4-(N-cyclopropylsulfonylamino)methylphenyl]-N2-[3-methyl-4-(4-methyl-1-piperazinyl)phenyl]-2,4-pyrimidinediamine] came in with an IC50 of 3.33 µM.
Then `CCNS(=O)(=O)NCc1ccc(Nc2nc(Nc3ccc(N4CCC(F)(F)CC4)cc3)ncc2C)cc1` [II-123, N2-[4-(4,4-Difluoro-1-piperidinyl)phenyl]-N4-[(4-(ethylamino)sulfonylamino)methylphenyl]-5-methyl-2,4-pyrimidinediamine], with 0.373 µM.
In turn, `CCNS(=O)(=O)NCc1ccc(Nc2nc(Nc3cc(C)c(OC)c(C)c3)ncc2Cl)cc1` [II-108, 5-chloro-N2-(3,5-Dimethyl-4-methoxyphenyl)-N4-[(4-(ethylamino)sulfonylamino)methylphenyl]-2,4-pyrimidinediamine] registered an IC50 of 0.085 µM.
Then “5-Chloro-N4-[4-(N-cyclopropylsulfonylamino)methylphenyl]-N2-[5-methyl-4-(N-methylpiperizin-4-yl)pyridin-3-yl]-2,4-pyrimidinediamine [II-225]”, with 0.12 µM; and “5-Chloro-N4-[3-(N-tert-butylsulfonyl)phenyl]-N2-[3,5-dimethyl-4-(2-(1-morpholino)ethoxyphenyl]-2,4-pyrimidinediamine [I-21]”, with 0.243 µM; and `COc1cc(Nc2ncc(C)c(Nc3ccc(CNS(=O)(=O)N(C)C)cc3)n2)cc(OC)c1OC` [II-103, N4-[(4-(Dimethylamino)sulfonylamino)methylphenyl]-5-methyl-N2-(3,4,5-trimethoxyphenyl)-2,4-pyrimidinediamine], with 0.509 µM.
Then `CN1CCC(c2ccc(Nc3ncc(Cl)c(Nc4ccc(CNS(=O)(=O)C5CC5)cc4)n3)cc2)CC1` [II-187, 5-Chloro-N4-[4-(N-cyclopropylsulfonylaminomethyl)phenyl]-N2-[4-(N-methylpiperidin-4-yl)phenyl]-2,4-pyrimidinediamine], with 0.293 µM; and `CCCOc1c(C)cc(Nc2ncc(Cl)c(Nc3ccc(CNS(=O)(=O)NC4CC4)cc3C)n2)cc1C` [II-178, 5-Chloro-N2-(3,5-dimethyl-4-propoxyphenyl)-N4-[2-methyl-4-((N-cyclopropylamino)sulfonylamino)methylphenyl]-2,4-pyrimidinediamine], with 0.428 µM.
